Reference: PubChem BioAssay (NCI)
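Each compound was tested at five concentrations against cells in 96-well plates for 48 hours. TGI is the concentration that stops growth completely.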

Columns and labels:
Assay in all cases: NCI anticancer screen, dose series, 48 h
NCI-H226 lung = test system: NCI-H226 lung
UACC-62 melanoma = test system: UACC-62 melanoma
OVCAR-5 ovarian = test system: OVCAR-5 ovarian
DLD-1 colon = test system: DLD-1 colon
UACC-257 melanoma = test system: UACC-257 melanoma
NCI-H460 lung = test system: NCI-H460 lung
SNB-75 CNS = test system: SNB-75 CNS
SF-268 CNS = test system: SF-268 CNS
HT29 colon = test system: HT29 colon
HOP-92 NSCLC = test system: HOP-92 NSCLC
M19-MEL melanoma = test system: M19-MEL melanoma
SK-MEL-5 melanoma = test system: SK-MEL-5 melanoma
MOLT-4 leukemia = test system: MOLT-4 leukemia
KM12 colon = test system: KM12 colon
SN12C renal = test system: SN12C renal
HCT-116 colon = test system: HCT-116 colon
SK-MEL-2 melanoma = test system: SK-MEL-2 melanoma
SK-OV-3 ovarian = test system: SK-OV-3 ovarian
SW-620 colon = test system: SW-620 colon
OVCAR-3 ovarian = test system: OVCAR-3 ovarian
RPMI-8226 leukemia = test system: RPMI-8226 leukemia
CAKI-1 renal = test system: CAKI-1 renal
HCT-15 colon = test system: HCT-15 colon
IGROV1 ovarian = test system: IGROV1 ovarian
M14 melanoma = test system: M14 melanoma
TK-10 renal = test system: TK-10 renal
HOP-18 NSCLC = test system: HOP-18 NSCLC
COLO 205 colon = test system: COLO 205 colon
A498 renal = test system: A498 renal
U251 CNS = test system: U251 CNS
MALME-3M melanoma = test system: MALME-3M melanoma
DMS 273 small cell lung = test system: DMS 273 small cell lung
UO-31 renal = test system: UO-31 renal
786-0 renal = test system: 786-0 renal
EKVX NSCLC = test system: EKVX NSCLC
SF-295 CNS = test system: SF-295 CNS
K-562 leukemia = test system: K-562 leukemia
HL-60(TB) leukemia = test system: HL-60(TB) leukemia
CCRF-CEM leukemia = test system: CCRF-CEM leukemia
LOX IMVI melanoma = test system: LOX IMVI melanoma
NCI-H522 lung = test system: NCI-H522 lung
A549 NSCLC = test system: A549 NSCLC
SF-539 CNS = test system: SF-539 CNS
ACHN renal = test system: ACHN renal
OVCAR-4 ovarian = test system: OVCAR-4 ovarian
KM20L2 colon = test system: KM20L2 colon
SNB-19 CNS = test system: SNB-19 CNS
LXFL 529 NSCLC = test system: LXFL 529 NSCLC
DMS 114 small cell lung = test system: DMS 114 small cell lung
HOP-62 NSCLC = test system: HOP-62 NSCLC
SR leukemia = test system: SR leukemia
SNB-78 CNS = test system: SNB-78 CNS
NCI-H23 lung = test system: NCI-H23 lung
SK-MEL-28 melanoma = test system: SK-MEL-28 melanoma
RXF 393 renal = test system: RXF 393 renal
OVCAR-8 ovarian = test system: OVCAR-8 ovarian
XF 498 CNS = test system: XF 498 CNS
HCC-2998 colon = test system: HCC-2998 colon

## COc1ccc(C)cc(=O)c1O
NCI-H226 lung
  TGI: > 100 µM
UACC-62 melanoma
  TGI: > 100 µM
OVCAR-5 ovarian
  TGI: > 100 µM
DLD-1 colon
  TGI: > 100 µM
UACC-257 melanoma
  TGI: > 100 µM
NCI-H460 lung
  TGI: > 100 µM
SNB-75 CNS
  TGI: > 100 µM
SF-268 CNS
  TGI: > 100 µM
HT29 colon
  TGI: > 100 µM
HOP-92 NSCLC
  TGI: > 100 µM
M19-MEL melanoma
  TGI: > 100 µM
SK-MEL-5 melanoma
  TGI: > 100 µM
MOLT-4 leukemia
  TGI: > 100 µM
KM12 colon
  TGI: > 100 µM
SN12C renal
  TGI: > 100 µM
HCT-116 colon
  TGI: > 100 µM
SK-MEL-2 melanoma
  TGI: > 100 µM
SK-OV-3 ovarian
  TGI: > 100 µM
SW-620 colon
  TGI: > 100 µM
OVCAR-3 ovarian
  TGI: > 100 µM
RPMI-8226 leukemia
  TGI: > 100 µM
CAKI-1 renal
  TGI: > 100 µM
HCT-15 colon
  TGI: > 100 µM
IGROV1 ovarian
  TGI: > 100 µM
M14 melanoma
  TGI: > 100 µM
TK-10 renal
  TGI: > 100 µM
HOP-18 NSCLC
  TGI: > 100 µM
COLO 205 colon
  TGI: > 100 µM
A498 renal
  TGI: > 100 µM
U251 CNS
  TGI: > 100 µM
MALME-3M melanoma
  TGI: > 100 µM
DMS 273 small cell lung
  TGI: > 100 µM
UO-31 renal
  TGI: > 100 µM
786-0 renal
  TGI: > 100 µM
EKVX NSCLC
  TGI: > 100 µM
SF-295 CNS
  TGI: > 100 µM
K-562 leukemia
  TGI: > 100 µM
HL-60(TB) leukemia
  TGI: 61.5 µM
CCRF-CEM leukemia
  TGI: 72.5 µM
LOX IMVI melanoma
  TGI: 79.7 µM
NCI-H522 lung
  TGI: 84.8 µM
A549 NSCLC
  TGI: > 100 µM
SF-539 CNS
  TGI: > 100 µM
ACHN renal
  TGI: > 100 µM
OVCAR-4 ovarian
  TGI: > 100 µM
KM20L2 colon
  TGI: > 100 µM
SNB-19 CNS
  TGI: > 100 µM
LXFL 529 NSCLC
  TGI: > 100 µM
DMS 114 small cell lung
  TGI: 50.4 µM
HOP-62 NSCLC
  TGI: > 100 µM
SR leukemia
  TGI: 38.6 µM
SNB-78 CNS
  TGI: > 100 µM
NCI-H23 lung
  TGI: > 100 µM
SK-MEL-28 melanoma
  TGI: > 100 µM
RXF 393 renal
  TGI: 90 µM

## NC1c2ccccc2Nc2ccccc21
NCI-H226 lung
  TGI: 27.9 µM
UACC-62 melanoma
  TGI: 15.5 µM
OVCAR-8 ovarian
  TGI: 17.1 µM
OVCAR-5 ovarian
  TGI: 25.6 µM
DLD-1 colon
  TGI: 17.1 µM
UACC-257 melanoma
  TGI: 17.4 µM
NCI-H460 lung
  TGI: 11.1 µM
SNB-75 CNS
  TGI: 24.4 µM
SF-268 CNS
  TGI: 13.9 µM
HT29 colon
  TGI: 20.4 µM
HOP-92 NSCLC
  TGI: 16.1 µM
M19-MEL melanoma
  TGI: 13.9 µM
SK-MEL-5 melanoma
  TGI: 17.1 µM
MOLT-4 leukemia
  TGI: 8.1 µM
KM12 colon
  TGI: 17 µM
SN12C renal
  TGI: 19 µM
HCT-116 colon
  TGI: 13.6 µM
SK-MEL-2 melanoma
  TGI: 29.8 µM
SK-OV-3 ovarian
  TGI: 23.6 µM
SW-620 colon
  TGI: 14.4 µM
OVCAR-3 ovarian
  TGI: 28.9 µM
RPMI-8226 leukemia
  TGI: 19.6 µM
CAKI-1 renal
  TGI: 17.4 µM
HCT-15 colon
  TGI: 14 µM
IGROV1 ovarian
  TGI: 21.7 µM
M14 melanoma
  TGI: 15.4 µM
TK-10 renal
  TGI: 29.8 µM
HOP-18 NSCLC
  TGI: 39.7 µM
COLO 205 colon
  TGI: 6.52 µM
A498 renal
  TGI: 22.8 µM
MALME-3M melanoma
  TGI: 19 µM
DMS 273 small cell lung
  TGI: 25.7 µM
UO-31 renal
  TGI: 13.4 µM
786-0 renal
  TGI: 15.9 µM
EKVX NSCLC
  TGI: 20.7 µM
SF-295 CNS
  TGI: 17 µM
XF 498 CNS
  TGI: 11.9 µM
K-562 leukemia
  TGI: 14.5 µM
HL-60(TB) leukemia
  TGI: 16.3 µM
CCRF-CEM leukemia
  TGI: 25.7 µM
LOX IMVI melanoma
  TGI: 13.2 µM
NCI-H522 lung
  TGI: 5.2 µM
A549 NSCLC
  TGI: 19.8 µM
ACHN renal
  TGI: 24.6 µM
KM20L2 colon
  TGI: 14.3 µM
SNB-19 CNS
  TGI: 27.7 µM
LXFL 529 NSCLC
  TGI: 17.5 µM
HCC-2998 colon
  TGI: 18.1 µM
DMS 114 small cell lung
  TGI: 12.5 µM
HOP-62 NSCLC
  TGI: 26.7 µM
SR leukemia
  TGI: 7.24 µM
SNB-78 CNS
  TGI: 37.3 µM
NCI-H23 lung
  TGI: 17.5 µM
SK-MEL-28 melanoma
  TGI: 14.2 µM
RXF 393 renal
  TGI: 15.9 µM
